The source of these data is ChEMBL document CHEMBL1201862, “PubChem BioAssay data set” (2004).

Data set [1] deals with H9c2. As to the kind of experiment: cells. In kind it is functional, cell-based. As to conditions: Rattus norvegicus, H9c2, Myocardium.
Data set [2] deals with T1, Cytochrome P450 2C9 (Homo sapiens, UniProt P11712).
In data set [3] the target is Cytochrome P450 2D6 (Homo sapiens, UniProt P10635).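 Also: CYP2D6 member of a cytochrome P450 panel assay.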
Data set [4] deals with T2, Cytochrome P450 1A2 (Homo sapiens, UniProt P05177).
T2 sequence (P05177 whole entry): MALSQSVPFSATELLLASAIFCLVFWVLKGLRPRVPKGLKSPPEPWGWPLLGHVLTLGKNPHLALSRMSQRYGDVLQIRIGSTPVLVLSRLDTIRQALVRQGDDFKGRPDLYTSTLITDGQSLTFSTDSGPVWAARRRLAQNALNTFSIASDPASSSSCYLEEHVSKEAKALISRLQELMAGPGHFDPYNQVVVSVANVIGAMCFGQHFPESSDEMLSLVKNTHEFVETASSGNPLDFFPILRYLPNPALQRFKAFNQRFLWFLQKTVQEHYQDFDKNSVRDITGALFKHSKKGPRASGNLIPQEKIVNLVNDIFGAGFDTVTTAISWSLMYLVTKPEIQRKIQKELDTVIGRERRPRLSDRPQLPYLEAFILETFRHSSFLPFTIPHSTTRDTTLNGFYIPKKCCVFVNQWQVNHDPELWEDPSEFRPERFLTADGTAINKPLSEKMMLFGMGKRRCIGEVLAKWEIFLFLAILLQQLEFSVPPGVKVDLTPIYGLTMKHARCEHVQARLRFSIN

Data set [5] in a line: viability of HCT116 lacking mutant beta-catenin – cell-based, human colon tumor, dose response (AID 1045).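 Also: HCT116 colon tumor cells with beta catenin knocked out; cells exposed to compound for 60 hours.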 It counts as functional.
The nature of data set [6]: Luminescence Cell-Based Dose Retest to Confirm Inhibitors of Cancer Stem Cells. [Related pubchem assays (depositor defined):AID2717, AID2721]. In kind it is functional. As to conditions: Homo sapiens.
Data set [7] is described as follows: NIH3T3 cell viability loss – ATP luminescence, mouse fibroblasts, counter-screen, dose response (AID 2010).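 Also: cells exposed to compound for about 90 hours before reading.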 In kind it is functional, cell-based.
Data set [8] in a line: viability of PTEN-deleted HCT116 cells – cell-based, HCT116 PTEN knockout, dose response (AID 1047).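 Also: HCT116 colon tumor cells with PTEN knocked out; cells exposed to compound for 60 hours before readout; potency for loss of cell viability measured by luminescence.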 It counts as functional.
In data set [9] the target is Nonstructural protein 1 (Influenza A virus, UniProt Q194T2). It counts as functional, Influenza A virus (A/California/07/2009(H1N1)).
Data set [10] is described as follows: Trypanosoma cruzi growth suppression in host cells – NIH3T3 host cells, beta-gal luminescence, confirmation (AID 2044).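 Also: intracellular parasites grown in NIH/3T3 mouse fibroblasts as host cells; luminescent beta-galactosidase reporter signal from transgenic T. cruzi replicating inside host cells; inhibitors lower the luminescence signal.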 It counts as functional, cell-based.
Data set [11] deals with T3, Fatty acid synthase (Homo sapiens, UniProt P49327). Put plainly: inhibition of human FAS-TE enzyme activity – biochemical, kinetic fluorescence intensity, dose response (AID 624326).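 Also: rate of fluorescence rise from hydrolysis of a fluorogenic O-methyl fluorescein ester substrate.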 It counts as functional.
The nature of data set [12]: HEK-293T viability loss after treatment – luminescence, T-cell screen hits, cytotoxicity control for TCR NF-kB inhibitor project, dose response (AID 489026).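 Also: cells exposed to compound about 14 hours before the viability readout.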 It counts as functional, cell-based.
The target in data set [13] is T3, Fatty acid synthase. Put plainly: inhibition of human FAS-TE enzyme activity – biochemical, endpoint fluorescence intensity, uHTS hits, dose response (AID 624327).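 Also: fluorescence from hydrolysis of an O-methyl fluorescein acyl ester substrate by the enzyme.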 It counts as functional.
For data set [14], the target named is T1, Cytochrome P450 2C9. This is another data set of the same source.
The test system of data set [15] is INS1. Put plainly: INS-1E survival protection against cytokine death – cell-based, luminescence, retest, dose response (AID 449756).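 Also: cell death triggered by IL-1 beta plus TNF-alpha plus IFN-gamma mixture; protective hits raise ATP signal compared with cytokine alone wells.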 In kind it is functional. Particulars: Rattus norvegicus.
Data set [16] addresses T4, Sentrin-specific protease 8 (Homo sapiens, UniProt Q96LD8).
T4 sequence (Q96LD8 whole entry): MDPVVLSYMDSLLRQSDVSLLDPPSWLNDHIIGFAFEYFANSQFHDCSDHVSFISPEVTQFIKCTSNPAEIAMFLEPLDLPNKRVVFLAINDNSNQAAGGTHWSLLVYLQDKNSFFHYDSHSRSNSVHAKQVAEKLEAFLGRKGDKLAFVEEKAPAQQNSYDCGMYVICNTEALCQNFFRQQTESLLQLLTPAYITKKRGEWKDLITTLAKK
In kind it is functional.

The target in data set [17] is T5, Sentrin-specific protease 6 (Homo sapiens, UniProt Q9GZR1).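 Also: Luminescence-based dose-response confirmatory assay of SENP6 inhibition, following up an ultra-high-throughput screen.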
T5 sequence (Q9GZR1 whole entry): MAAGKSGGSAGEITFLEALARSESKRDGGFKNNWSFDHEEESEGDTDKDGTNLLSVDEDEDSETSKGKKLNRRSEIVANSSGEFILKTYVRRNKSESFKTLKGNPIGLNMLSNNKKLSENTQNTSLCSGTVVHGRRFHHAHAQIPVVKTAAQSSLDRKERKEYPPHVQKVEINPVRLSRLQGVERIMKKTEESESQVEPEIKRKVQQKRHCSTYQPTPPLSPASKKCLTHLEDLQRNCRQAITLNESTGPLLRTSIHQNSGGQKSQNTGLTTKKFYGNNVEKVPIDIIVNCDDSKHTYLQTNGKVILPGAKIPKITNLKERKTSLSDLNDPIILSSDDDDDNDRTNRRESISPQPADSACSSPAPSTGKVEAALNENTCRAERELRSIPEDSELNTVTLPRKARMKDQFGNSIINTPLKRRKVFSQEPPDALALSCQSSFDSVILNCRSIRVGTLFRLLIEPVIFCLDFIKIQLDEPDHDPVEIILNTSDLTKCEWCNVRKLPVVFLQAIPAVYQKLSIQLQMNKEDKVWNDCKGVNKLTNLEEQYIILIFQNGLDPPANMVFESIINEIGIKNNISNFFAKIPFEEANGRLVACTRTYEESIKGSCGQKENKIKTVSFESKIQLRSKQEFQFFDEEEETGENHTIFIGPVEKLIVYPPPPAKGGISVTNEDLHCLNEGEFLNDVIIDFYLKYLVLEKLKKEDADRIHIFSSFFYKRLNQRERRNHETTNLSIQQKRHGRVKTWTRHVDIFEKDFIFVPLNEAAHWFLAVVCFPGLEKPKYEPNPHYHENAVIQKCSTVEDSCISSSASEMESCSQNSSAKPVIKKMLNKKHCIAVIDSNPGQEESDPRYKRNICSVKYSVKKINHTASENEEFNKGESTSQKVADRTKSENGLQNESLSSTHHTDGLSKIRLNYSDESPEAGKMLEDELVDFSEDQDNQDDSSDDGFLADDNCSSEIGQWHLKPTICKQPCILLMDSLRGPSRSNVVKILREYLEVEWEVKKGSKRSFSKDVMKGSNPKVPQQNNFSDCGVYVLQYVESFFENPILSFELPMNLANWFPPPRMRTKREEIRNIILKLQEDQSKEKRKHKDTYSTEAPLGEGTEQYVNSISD
It counts as functional.

Data set [18] deals with T6, Sentrin-specific protease 7 (Homo sapiens, UniProt Q9BQF6).
T6 sequence (Q9BQF6 whole entry): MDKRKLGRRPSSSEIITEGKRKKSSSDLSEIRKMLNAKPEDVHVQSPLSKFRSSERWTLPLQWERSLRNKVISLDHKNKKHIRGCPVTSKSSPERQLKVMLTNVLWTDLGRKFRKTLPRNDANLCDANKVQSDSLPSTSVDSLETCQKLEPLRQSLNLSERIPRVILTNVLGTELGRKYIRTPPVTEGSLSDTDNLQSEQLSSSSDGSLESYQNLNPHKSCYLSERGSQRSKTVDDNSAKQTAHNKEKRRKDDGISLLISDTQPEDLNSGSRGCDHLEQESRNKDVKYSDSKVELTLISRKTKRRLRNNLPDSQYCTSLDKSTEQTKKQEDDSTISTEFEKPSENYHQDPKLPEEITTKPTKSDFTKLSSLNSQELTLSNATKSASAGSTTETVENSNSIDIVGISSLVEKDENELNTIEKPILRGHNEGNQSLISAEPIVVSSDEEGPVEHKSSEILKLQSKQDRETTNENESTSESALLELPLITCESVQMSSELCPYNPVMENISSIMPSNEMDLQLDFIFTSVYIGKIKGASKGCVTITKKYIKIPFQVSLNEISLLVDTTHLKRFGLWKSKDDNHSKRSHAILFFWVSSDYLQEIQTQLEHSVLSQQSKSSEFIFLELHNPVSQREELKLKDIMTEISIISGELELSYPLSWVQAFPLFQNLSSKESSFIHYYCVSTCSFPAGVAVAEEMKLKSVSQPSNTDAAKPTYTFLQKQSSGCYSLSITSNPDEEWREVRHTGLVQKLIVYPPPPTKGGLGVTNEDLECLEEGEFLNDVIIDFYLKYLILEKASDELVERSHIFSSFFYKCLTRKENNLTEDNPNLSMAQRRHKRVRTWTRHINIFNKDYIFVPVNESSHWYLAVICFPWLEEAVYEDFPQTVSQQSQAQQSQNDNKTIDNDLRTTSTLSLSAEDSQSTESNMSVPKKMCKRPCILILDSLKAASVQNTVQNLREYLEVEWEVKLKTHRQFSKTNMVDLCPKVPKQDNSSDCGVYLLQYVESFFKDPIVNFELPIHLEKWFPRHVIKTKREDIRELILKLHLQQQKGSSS
In kind it is functional.

Data set [19] has as its target T7, Caspase-3 (Homo sapiens, UniProt P42574).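 Also: Dose-response selectivity test against caspase-3 for candidate inhibitors of sentrin-specific proteases (SENPs).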
T7 sequence (P42574 whole entry): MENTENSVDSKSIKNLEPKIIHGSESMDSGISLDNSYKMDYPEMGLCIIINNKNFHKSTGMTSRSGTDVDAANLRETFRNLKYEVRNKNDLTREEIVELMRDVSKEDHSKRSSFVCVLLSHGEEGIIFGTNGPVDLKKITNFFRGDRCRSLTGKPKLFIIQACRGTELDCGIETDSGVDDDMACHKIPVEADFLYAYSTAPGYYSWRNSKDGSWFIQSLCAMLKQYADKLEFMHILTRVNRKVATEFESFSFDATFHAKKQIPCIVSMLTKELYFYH
In kind it is functional.

Data set [20] addresses Induced myeloid leukemia cell differentiation protein Mcl-1 (Homo sapiens, UniProt Q07820). In kind it is functional.
The target in data set [21] is Cytochrome P450 3A4 (Homo sapiens, UniProt P08684).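 Also: CYP3A4 tested as one member of a cytochrome P450 panel screen.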

SMILES strings stand for the structures. Active and inactive are the calls of the source.

Chain of Cytochrome P450 2D6 (P10635 whole entry): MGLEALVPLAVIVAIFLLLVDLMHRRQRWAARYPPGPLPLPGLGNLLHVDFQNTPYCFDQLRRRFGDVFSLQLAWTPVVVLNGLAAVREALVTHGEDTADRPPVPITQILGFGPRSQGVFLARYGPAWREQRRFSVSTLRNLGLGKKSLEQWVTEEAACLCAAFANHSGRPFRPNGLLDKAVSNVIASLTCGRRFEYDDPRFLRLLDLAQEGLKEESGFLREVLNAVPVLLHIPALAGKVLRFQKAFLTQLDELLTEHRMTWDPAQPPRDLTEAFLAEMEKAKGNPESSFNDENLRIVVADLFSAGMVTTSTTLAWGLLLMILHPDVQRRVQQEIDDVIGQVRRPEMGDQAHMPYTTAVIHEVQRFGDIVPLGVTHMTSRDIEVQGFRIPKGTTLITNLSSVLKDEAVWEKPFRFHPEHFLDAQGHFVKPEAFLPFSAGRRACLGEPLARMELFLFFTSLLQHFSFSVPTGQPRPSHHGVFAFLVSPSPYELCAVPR
T1 sequence (P11712 whole entry): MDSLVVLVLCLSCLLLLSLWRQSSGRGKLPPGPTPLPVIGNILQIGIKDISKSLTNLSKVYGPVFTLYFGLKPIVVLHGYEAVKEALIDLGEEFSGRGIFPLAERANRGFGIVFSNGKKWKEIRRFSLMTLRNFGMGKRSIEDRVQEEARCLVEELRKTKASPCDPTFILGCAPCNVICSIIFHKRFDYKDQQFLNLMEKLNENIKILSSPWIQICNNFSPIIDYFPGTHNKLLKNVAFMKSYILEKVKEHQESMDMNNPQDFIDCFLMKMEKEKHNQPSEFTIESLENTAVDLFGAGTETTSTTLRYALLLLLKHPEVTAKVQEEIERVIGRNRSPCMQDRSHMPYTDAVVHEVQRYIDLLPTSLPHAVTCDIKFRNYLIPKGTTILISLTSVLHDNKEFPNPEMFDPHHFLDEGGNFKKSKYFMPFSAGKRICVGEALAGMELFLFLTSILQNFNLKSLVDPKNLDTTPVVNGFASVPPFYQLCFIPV
T3 sequence (P49327 whole entry): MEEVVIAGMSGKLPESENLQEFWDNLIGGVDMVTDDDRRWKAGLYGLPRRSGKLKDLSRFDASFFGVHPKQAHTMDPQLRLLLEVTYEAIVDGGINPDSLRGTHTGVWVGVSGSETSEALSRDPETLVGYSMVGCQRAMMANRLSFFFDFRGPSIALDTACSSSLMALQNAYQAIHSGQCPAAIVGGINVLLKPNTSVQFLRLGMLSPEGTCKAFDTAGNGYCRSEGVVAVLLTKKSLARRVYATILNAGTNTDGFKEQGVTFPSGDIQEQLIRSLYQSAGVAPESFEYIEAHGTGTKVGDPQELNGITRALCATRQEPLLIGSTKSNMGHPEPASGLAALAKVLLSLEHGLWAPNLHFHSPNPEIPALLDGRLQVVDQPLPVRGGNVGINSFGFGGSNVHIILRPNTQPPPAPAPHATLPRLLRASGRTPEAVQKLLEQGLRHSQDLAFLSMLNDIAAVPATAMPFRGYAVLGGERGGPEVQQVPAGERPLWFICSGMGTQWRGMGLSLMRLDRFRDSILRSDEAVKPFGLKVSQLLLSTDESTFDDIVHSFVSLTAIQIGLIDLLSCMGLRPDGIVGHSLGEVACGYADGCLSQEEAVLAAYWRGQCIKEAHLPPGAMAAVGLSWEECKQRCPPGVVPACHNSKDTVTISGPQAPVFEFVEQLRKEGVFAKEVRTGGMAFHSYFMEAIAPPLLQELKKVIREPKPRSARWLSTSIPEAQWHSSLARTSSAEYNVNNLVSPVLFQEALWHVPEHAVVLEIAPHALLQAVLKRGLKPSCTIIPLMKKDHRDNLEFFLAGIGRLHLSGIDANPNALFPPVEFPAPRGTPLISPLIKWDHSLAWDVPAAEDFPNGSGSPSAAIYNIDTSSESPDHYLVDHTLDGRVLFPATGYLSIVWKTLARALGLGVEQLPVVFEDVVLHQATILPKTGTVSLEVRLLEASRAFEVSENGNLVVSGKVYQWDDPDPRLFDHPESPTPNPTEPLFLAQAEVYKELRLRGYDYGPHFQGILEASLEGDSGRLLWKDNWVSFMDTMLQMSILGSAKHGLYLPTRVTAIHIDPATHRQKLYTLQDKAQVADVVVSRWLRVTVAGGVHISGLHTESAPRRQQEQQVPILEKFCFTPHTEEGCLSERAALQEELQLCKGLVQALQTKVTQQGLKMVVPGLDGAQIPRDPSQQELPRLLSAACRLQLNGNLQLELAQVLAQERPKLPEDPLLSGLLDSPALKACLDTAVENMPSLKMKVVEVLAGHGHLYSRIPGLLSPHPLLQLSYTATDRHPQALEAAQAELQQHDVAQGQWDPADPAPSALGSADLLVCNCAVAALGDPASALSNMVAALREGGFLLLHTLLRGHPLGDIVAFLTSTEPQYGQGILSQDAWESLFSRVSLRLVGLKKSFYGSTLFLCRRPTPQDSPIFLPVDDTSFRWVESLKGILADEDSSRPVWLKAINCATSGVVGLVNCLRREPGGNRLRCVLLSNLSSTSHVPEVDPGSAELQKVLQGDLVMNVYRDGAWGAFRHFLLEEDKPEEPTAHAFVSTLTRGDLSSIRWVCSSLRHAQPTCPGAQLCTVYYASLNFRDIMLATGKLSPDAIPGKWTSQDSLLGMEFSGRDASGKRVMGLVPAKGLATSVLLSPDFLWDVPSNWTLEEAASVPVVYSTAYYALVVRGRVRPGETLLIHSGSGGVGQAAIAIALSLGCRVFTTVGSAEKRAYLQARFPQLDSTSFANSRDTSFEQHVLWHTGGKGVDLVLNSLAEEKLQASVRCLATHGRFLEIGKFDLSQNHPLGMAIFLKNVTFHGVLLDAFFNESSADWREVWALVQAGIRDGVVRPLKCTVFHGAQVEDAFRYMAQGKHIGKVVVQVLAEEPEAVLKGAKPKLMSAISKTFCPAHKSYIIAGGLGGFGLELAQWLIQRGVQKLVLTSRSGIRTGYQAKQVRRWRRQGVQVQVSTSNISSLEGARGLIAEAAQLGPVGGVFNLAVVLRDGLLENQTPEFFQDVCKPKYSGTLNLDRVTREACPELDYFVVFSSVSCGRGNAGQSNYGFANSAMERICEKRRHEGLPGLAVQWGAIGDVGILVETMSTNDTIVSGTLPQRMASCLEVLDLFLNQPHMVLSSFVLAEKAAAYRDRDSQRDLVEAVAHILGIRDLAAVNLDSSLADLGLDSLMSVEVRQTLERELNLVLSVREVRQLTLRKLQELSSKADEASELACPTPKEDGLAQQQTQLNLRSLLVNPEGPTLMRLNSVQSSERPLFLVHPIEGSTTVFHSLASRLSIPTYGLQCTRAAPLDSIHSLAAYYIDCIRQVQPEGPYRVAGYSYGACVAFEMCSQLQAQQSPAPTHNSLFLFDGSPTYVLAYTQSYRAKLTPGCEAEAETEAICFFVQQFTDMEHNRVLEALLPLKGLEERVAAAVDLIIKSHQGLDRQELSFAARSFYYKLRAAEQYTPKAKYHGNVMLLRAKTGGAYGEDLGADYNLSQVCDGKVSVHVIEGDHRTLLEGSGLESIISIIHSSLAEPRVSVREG
Chain of Induced myeloid leukemia cell differentiation protein Mcl-1 (Q07820 whole entry): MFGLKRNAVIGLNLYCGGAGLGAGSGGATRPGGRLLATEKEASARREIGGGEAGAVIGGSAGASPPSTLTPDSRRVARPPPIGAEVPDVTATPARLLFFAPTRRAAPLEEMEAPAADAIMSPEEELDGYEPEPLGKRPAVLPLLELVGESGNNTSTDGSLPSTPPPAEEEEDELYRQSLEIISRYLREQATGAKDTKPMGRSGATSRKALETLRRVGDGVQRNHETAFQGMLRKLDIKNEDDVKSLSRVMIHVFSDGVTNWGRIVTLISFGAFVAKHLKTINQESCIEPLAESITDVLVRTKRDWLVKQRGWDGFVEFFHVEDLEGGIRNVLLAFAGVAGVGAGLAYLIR
Chain of Cytochrome P450 3A4 (P08684 whole entry): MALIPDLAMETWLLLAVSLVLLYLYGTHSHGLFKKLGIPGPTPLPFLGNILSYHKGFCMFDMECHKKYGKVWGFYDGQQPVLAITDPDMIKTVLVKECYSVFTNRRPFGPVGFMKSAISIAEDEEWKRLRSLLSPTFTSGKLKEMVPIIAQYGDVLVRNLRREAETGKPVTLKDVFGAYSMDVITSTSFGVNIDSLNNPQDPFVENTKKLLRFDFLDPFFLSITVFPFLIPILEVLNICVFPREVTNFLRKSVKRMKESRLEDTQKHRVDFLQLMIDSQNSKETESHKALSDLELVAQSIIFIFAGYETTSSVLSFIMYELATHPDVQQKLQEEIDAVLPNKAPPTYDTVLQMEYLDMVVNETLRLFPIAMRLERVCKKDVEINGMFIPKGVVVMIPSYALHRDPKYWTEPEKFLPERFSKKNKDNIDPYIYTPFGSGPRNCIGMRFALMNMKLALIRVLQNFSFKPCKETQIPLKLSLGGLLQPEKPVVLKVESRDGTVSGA
Chain of Nonstructural protein 1 (Q194T2 whole entry): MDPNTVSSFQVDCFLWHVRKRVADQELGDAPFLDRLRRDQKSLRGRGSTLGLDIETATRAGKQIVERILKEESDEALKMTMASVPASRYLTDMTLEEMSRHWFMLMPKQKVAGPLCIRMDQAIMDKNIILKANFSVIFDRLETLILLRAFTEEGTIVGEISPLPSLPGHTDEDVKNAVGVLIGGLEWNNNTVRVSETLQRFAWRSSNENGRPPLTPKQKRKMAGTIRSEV

Take `CCCc1cc2c(cc1NC(=O)c1ccc(Br)cc1)OCO2`: the IC50 in [1] is > 79 µM (inactive). The AC50 is 2.82 µM (inconclusive) in data set [2], 0.708 µM (inconclusive) in data set [3] and 1.26 µM (inconclusive) in data set [4].
On to `Cc1cnc(CNc2ncnc3ccc(-c4ccc(N(C)C)cc4)cc23)cn1`, for which the concentration at half-maximal activity (AC50) in [3] is 25.1 µM (inconclusive).
As for `N#C/C(=C/c1cn(-c2ccccc2)nc1-c1cccc(OCc2ccc(F)cc2)c1)C(=O)NCCCn1ccnc1`, the EC50 is 21.7 µM (active) in data set [5], > 30 µM (not active) in data set [7], 23.4 µM (active) in data set [8] and 1.46 µM (active) in data set [10]. Besides, the concentration at half-maximal activity (AC50) in data set [6] is 2.5 µM (active). The IC50 in data set [9] is 81.1 µM (active).
Turning to `O=C(c1csnn1)N1CCC2(CCCN(c3ccccc3)C2)CC1`, in data set [3], the concentration at half-maximal activity (AC50) was 20 µM (inconclusive).
Regarding `COc1ccc(C(=O)c2cnc3ccccc3c2-c2ccccc2)cc1`, the results for the AC50 in data set [2] and in [3] were 7.08 µM (inconclusive) and 31.6 µM (inconclusive), respectively.
Consider `COc1ccc2c(c1)C(=O)N1[C@H]3c4cc(Br)ccc4OC[C@@H]3[C@H](c3ccccc3)[C@]1(C)C(=O)N2`, for which the half-maximal inhibitory concentration (IC50) was 18 µM (active) in data set [11], > 80 µM (inactive) in data set [12] and 17.1 µM (active) in [13].
As for `CC(C)CO/N=C1/[C@H]2O[C@@H]2[C@@H](O)[C@H]2[C@H]1CCn1c(=O)n(-c3ccccc3)c(=O)n12`, in data set [14], the AC50 entry is recorded as “inconclusive”.
For `Cc1cc2cc(CN(Cc3cccs3)S(=O)(=O)c3ccc4c(c3)OCCO4)c(O)nc2cc1C`, the concentration for a half-maximal effect (EC50) in data set [5] is 30.2 µM (active); in data set [8], 33.8 µM (active).
For `CN(C)S(=O)(=O)c1ccc(Nc2nc(C3CC3)nc3c2nnn3Cc2ccccc2Cl)cc1`, the IC50 in data set [12] was > 80 µM (inactive). The AC50 in [15] was 4.71 µM (active).
In the case of `CN(C)c1ccc(NC(=O)CSc2nc(N)c(C(=O)Nc3ccc(N(C)C)cc3)s2)cc1`, the AC50 in [3] was 17.8 µM (inconclusive).
With `Cc1ccc(O)c(NC(=O)c2cc(-c3ccco3)on2)c1`, the IC50 in data set [16] is > 100 µM (inactive); in [17], > 100 µM (inactive); in data set [18] it was 8.57 µM (active); in [19] it was 21.3 µM (active); in data set [12], > 80 µM (inactive).
With `CCOC(=O)C(C(=O)OCC)C(Nc1cccc(Br)c1)c1ccccc1` (centres undefined), the EC50 was 147 µM (active) in data set [5] and 115 µM (active) in [8].
In the case of `O=C(c1cccc(F)c1)N1CCC2(CCCN(c3ncccn3)C2)CC1`, the AC50 is 31.6 µM (inconclusive) in data set [3] and 25.1 µM (inconclusive) in data set [4].
Regarding `Cc1cc(C)cc(NS(=O)(=O)c2ccc3[nH]cc(C(=O)NCc4ccco4)c(=O)c3c2)c1`, the EC50 was 1.78 µM (active) in data set [5] and 2.68 µM (active) in data set [8]. For the same compound, in [6], the AC50 is 0.428 µM (active).
Take `CCOC(=O)NNc1ccc2nonc2c1[N+](=O)[O-]`: the IC50 in [16] was 4.85 µM (active); in [17], 4.96 µM (active); in [18], 10.8 µM (active); in data set [19] it was 8.38 µM (active); in data set [20] it was 42.2 µM (active).
Turning to `N#Cc1cccc(-c2cc(NCc3cccs3)ncn2)c1`, the half-maximal activity concentration (AC50) in data set [3] is 20 µM (inconclusive); in [21] it was 1.58 µM (inconclusive).
`CC(C)OCCCN1C(=O)c2[nH]nc(-c3ccccc3O)c2C1c1cccc(Cl)c1` (centres undefined): the figures for the EC50 in data set [5] and in data set [8] were 27.6 µM (active) and 25.2 µM (active), respectively.
With `Cc1cc(C)n(CCc2nc(-c3ccc(-c4ccccc4)cc3)cs2)n1`, the half-inhibitory concentration (IC50) in data set [16] is 59.3 µM (active); in [17], 20.5 µM (active); in data set [18], 4.98 µM (active); in data set [19] it was 23.9 µM (active).
Turning to `Oc1nc(S)nc(SCc2c(Cl)c(Cl)c(Cl)c(Cl)c2Cl)n1`, the AC50 in data set [3] is 3.98 µM (inconclusive).
